The values that follow come from patent US4780476A, “Azoniaspironortropanol esters as asthma therapeutics and broncholytics” (Madaus GmbH & Co., priority 1985, dated 1988).

Test [1] has as its system awake guinea pig (cholinergically-induced bronchial cramps). Briefly: inhalative provocation with acetyl-β-methylcholine chloride aerosol on awake guinea pigs (broncholytic/protective action). The class given is in vivo. The note with it: for EC50: Cavia porcellus, read-out: EC50, average effective concentration w of acetyl-β-methylcholine chloride (provocation substance) after pre-treatment; for probit analysis reaction % observed: animals reacting with dyspnoea; for probit analysis reaction % calculated: probit regression. The method, then: animal strain: Pirbright white test substance: trospium chloride (MP 194) (M.W. 428) dosage: 3×10^-7 mole ml^-1 kg^-1 mode of administration: intraperitoneally test substance: dehydrotrospium chloride (WG 71) (M.W. 426) […]
reference substance: atropine hydrochloride (Serva; M.W. 325.8) […]
reference substance: isoproterenol (Fluka; M.W. 247.72) dosage: […]
further substances: acetyl-β-methylcholine chloride (Sigma; M.W. 195.7) mode of administration: 0.5 ml. min^-1 by inhalation.
The guinea pigs intended for an experiment are, after an acclimatization time of at least 8 days, subjected twice to an aerosol of 0.1% acetyl-β-methylcholine chloride solution since, as is known from experience, during the first two inhalative provocations, the animals react with more distinct respiratory disturbances than in the case of the subsequent provocations (adaptation). If, in the case of the two inhalation phases, a nonsensitivity (absence of respiratory disturbances) is observed towards the exposure, these animals are excluded from the actual experiment.
For the purpose of aerosol provocation, the guinea pigs are placed individually in an inhalation chamber (see Section 3.6 hereinafter) in which 0.5 ml. of solution per minute are atomized as droplet aerosol by means of a special nozzle (Rhema, Hofheim, Germany). […] With the help of a stopwatch, there is recorded the time from the commencement of inhalation to the appearance of the asphyctic state; the animals are immediately removed from the inhalation chamber and, as a rule, recover in a very short period of time (recovery of consciousness and normalization of breathing). If, within 180 seconds, no dysponea occurs, the inhalation is discontinued.
One aerosol concentration is tested per test day; the time between the individual aerosol provocations is at least 1 week.
The inhalation chamber is a Plexiglass container specially made for this purpose, the lid of which can be closed in an air-tight manner by means of rubber sealing and grip closure means. The internal measurements of the chamber are 285×190×180 mm., which corresponds to a volume of about 9.75 liters. The special nozzle (Rhema, Hofheim, Germany, order No. 504104) is fixed to a recess on the lid and ensures a uniform supply of the available chamber space with the aerosol. The provocation solution is supplied to the nozzle via an infusion pump (Braun, Melsungen, Germany) (0.5 ml./minute) and there atomized with a superpressure of 180 kPa from an attached pressure gas bottle (artificial air, KW-free). For reasons of safety, the aerosol provocation is carried out under a ventilator.
The EC50, as well as the related confidence interval (p>95%), are determined from the probit regression lines of the percentage values (v. supra) provided with weight coefficients after line adaptation by the "maximum likelihood" method (10 iterations). Furthermore, there is examined the adaptation of the lines to the observed data by means of the chiquadrat test. For the evaluation, a calculation programme is commercially available (Olivetti).

Test [2] deals with T1, isolated tracheal spirals of the guinea pig (Cavia porcellus).
T1 construct: the whole of the trachea is roughly freed beginning from the larynx up to the tracheal bifurcation, removed and transferred; from tissue; host or cells: isolated trachea (spiral strips) of male Pirbright white guinea pigs
Kind of test: anticholinergic effectiveness on isolated tracheal spirals (antagonism against acetyl-β-methylcholine chloride). The note with it: ratio of maximum agonist effect in presence (EAmB) and absence (EAm) of antagonist. The text has this: (§1) A model for this is the measurement of the anticholinergic effectiveness on isolated tracheal spirals of the guinea pig.
(§2) The test substance used was 3α-benziloyloxynortropane-8-spiro-1'-pyrrolidinium chloride (trospium chloride; MP 194), ipratropium bromide being used as comparison substance.
(§3) There is to be determined the anticholinergic effectiveness of MP 194 in comparison with the reference substance ipratropium bromide on the isolated tracheal spirals of the guinea pig.
(§4) 3.1.1. animal species: guinea pig
(§5) 3.1.2. animal strain: Pirbright white
(§6) 3.3.1. test substance (test antagonist) trospium chloride (MP 194) (M.W. 428)
(§7) 3.3.2. reference substance (reference antagonist) ipratropium bromide (Atrovent) (M.W. 412.4)
(§8) 3.3.3.1. acetyl-β-methylcholine chloride (Sigma) (M.W. 195.7)
(§9) The guinea pig is stunned by a blow on the neck. Subsequently, the whole of the trachea is roughly freed beginning from the larynx up to the tracheal bifurcation, removed and transferred to tempered (37° C.) and carbogenized tyrode solution. After surrounding connective tissue has been removed as far as possible, the preparation is cut up spirally by means of fine scissors at an angle of about 45° and separated into two equal sized sections. After weighing, both preparations are provided proximally and distally with a silk thread. One thread serves for fixing the preparation by means of a loop to the bottom of the bath and the other is connected via a hook with the transducer above the bath vessel.
(§10) Subsequently, the preparations, corresponding to the calibration, are prestressed with about 80 mN and equilibrated from 50-100 minutes. During the equilibration phase, the nutrient solution in the bath vessels is renewed in 15 minute intervals. As soon as the resting muscle tonus of the preparation has stabilized, there takes place the cumulative addition of the agonist, whereby the addition of the next highest concentration first takes place when no further increase of contraction is recognisable (plateau). When the maximum contraction height of the preparation is achieved, the cumulative agonist addition is ended and the preparation is rinsed. After a further equilibration phase (v. supra), the cumulative addition of the agonist is repeated but this time in the presence of the test or reference antagonist.
(§11) 3.6.1. The perfusion part consists of an L-shaped organ bath in the hollow space of which (longer limb) runs a double glass spiral through which the nutrient solution is passed into the actual bath vessel (28 ml. content; shorter limb). This bath vessel is divided into two chambers which are, however, connected together by two transverse connections. […] The inlet chambers as well as the feeding glass spirals are tempered from the outside to 37° C. by a separate liquid circulation. This tempering takes place with the help of a "Colora" ultra-thermostat type K (Colora Messtechnik GmbH, Dusseldorf, Germany) which serves as thermostat and pump. In order, in case of need, always to have available ready-for-use nutrient solution, above the organ bath is provided a double-walled storage container in which the nutrient solution is also tempered and carbogenised. This is connected via a glass stopcock and a polypropylene tube with double glass spiral in the interior of the organ bath.
(§12) 3.6.2. The measurement and recording part includes a transducer (Statham-Universal-Zelle UC-2; Hugo Sachs Elektronic KG, Hugstetten, Germany). By means of a hanging-in weight, a force of 40 mN is produced on the transducer which passes as electrical signal via a connecting cable to a bridge amplifier. The amplification is smoothly so regulated that the force provided corresponds to a constant value on the scale or an analogous value on the millimeter paper of the recorder (dependent upon the amplification; see below). After fixing the organ, the preparation is prestressed to the doubled mark, corresponding to 80 mN. […]

Test [3] addresses T2, isolated tracheal spirals of the guinea pig (Cavia porcellus, UniProt H0W1Z3).
T2 construct: the whole of the trachea is roughly freed beginning from the larynx up to the tracheal bifurcation, removed and transferred; from tissue; host or cells: isolated trachea (spiral strips) of male Pirbright white guinea pigs
Described as above. The note with it: for antagonism against acetyl-β-methylcholine chloride / anticholinergic effectiveness (in words): isolated guinea pig tracheal spirals.
Description: as §1, §2, §3, §4, §5, §6, §7, §8, §9, §10, §11, §12

[4] abbreviates: acetyl-β-methylcholine chloride w=0.001000, 10 tested (isoproterenol 9), pre-treatment 3×10^-7 mol ml^-1 kg^-1 i.p.
Setting [5] is: acetyl-β-methylcholine chloride w=0.001000, pre-treatment 3×10^-7 mol ml^-1 kg^-1 i.p.
The mark [6] stands for this setting: acetyl-β-methylcholine chloride w=0.001780, pre-treatment 3×10^-7 mol ml^-1 kg^-1 i.p.
Setting [7] is: acetyl-β-methylcholine chloride w=0.001780, trospium chloride 10 tested, dehydrotrospium chloride 9, atropine 9, isoproterenol 8, pre-treatment 3×10^-7 mol ml^-1 kg^-1 i.p.
Setting [8] is: acetyl-β-methylcholine chloride w=0.003160, 10 tested (isoproterenol 9), pre-treatment 3×10^-7 mol ml^-1 kg^-1 i.p.
[9] abbreviates: acetyl-β-methylcholine chloride w=0.003160, pre-treatment 3×10^-7 mol ml^-1 kg^-1 i.p.
Setting [10] is: acetyl-β-methylcholine chloride w=0.005620, 10 tested (isoproterenol 9), pre-treatment 3×10^-7 mol ml^-1 kg^-1 i.p.
[11] abbreviates: acetyl-β-methylcholine chloride w=0.005620, pre-treatment 3×10^-7 mol ml^-1 kg^-1 i.p.

Converted amounts (≈) assume the structure as drawn. Where two headings read alike, the source gives them in different places.

T2 sequence (H0W1Z3 1-590): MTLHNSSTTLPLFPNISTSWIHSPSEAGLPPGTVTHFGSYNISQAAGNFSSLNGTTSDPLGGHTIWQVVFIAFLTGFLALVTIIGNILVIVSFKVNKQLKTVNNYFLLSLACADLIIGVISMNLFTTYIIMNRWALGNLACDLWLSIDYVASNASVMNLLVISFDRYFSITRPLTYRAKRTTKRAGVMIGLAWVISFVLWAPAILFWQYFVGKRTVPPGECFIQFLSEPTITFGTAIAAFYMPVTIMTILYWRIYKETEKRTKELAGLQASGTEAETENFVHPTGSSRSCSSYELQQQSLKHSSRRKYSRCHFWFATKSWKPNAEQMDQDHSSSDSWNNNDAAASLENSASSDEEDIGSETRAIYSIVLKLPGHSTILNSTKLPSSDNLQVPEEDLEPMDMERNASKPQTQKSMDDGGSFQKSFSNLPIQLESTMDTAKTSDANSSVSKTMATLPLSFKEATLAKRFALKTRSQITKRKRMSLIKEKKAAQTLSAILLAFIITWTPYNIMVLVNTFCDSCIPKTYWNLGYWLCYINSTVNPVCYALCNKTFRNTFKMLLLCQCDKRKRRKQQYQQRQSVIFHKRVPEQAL
T1 sequence (H0W1Z3 1-590): as above

For the compound `O=C(OC1CC2CCC(C1)[N+]21CC=CC1)C(O)(c1ccccc1)c1ccccc1` (stereo not drawn) [dehydrotrospium chloride, 3α-benziloyloxynortropane-8-spiro-1'-(3'-pyrrolinium)chloride], the “broncholytic effectiveness compared with atropine and isoproterenol (in words)” value in test [1] (15 min after i.p. administration, equimolar dosages) is “comparable with or superior to the well known parasympatholytics atropine and the β-sympathomimetic isoproterenol”. The EC50 in test [1] is 1730 µg/mL. Moreover, the “number of animals reacting” value stood at 3 in test [1] (setting [4]), 6 in test [1] (setting [7]), 6 in test [1] (setting [8]) and 7 in test [1] (setting [10]). Further, the “probit analysis reaction % observed” value came to 30.00% in test [1] (setting [5]), 66.67% in test [1] (setting [6]), 60.00% in test [1] (setting [9]) and 70.00% in test [1] (setting [11]). The “probit analysis reaction % calculated” value in test [1] (setting [5]) is 38.74%; in test [1] (setting [6]), 50.60%; in test [1] (setting [9]) it was 62.35%; in test [1] (setting [11]), 73.08%. Further, in test [1] (intraperitoneal, cholinergically-induced bronchial cramps, awake guinea pig), the “broncholytic effect (in words)” value is on record as “outstanding broncholytic effect”.

As for `CC(C)[N+]1(C)C2CCC1CC(OC(=O)C(CO)c1ccccc1)C2` (stereo not drawn) [ipratropium bromide, reference compound], the “EAmB/EAm ± s” value in test [2] is 1.10 ± 0.24. Moreover, in test [3] (antagonism against acetyl-β-methylcholine chloride, read-out: pA2 ± s (converted)), the Kb is 0.49 nM. Further, the “quality of the antagonism (in words)” value in test [3] (comparison of maximum effects in absence and presence of the antagonist) is listed as “competitive antagonism”. The “antagonism against acetyl-β-methylcholine chloride / anticholinergic effectiveness (in words)” value in test [3] is listed as “comparable, dosage-dependent antagonism”; in test [3] (listed as epratropium bromide), “dosage dependent antagonism”.

With `CC(C)NCC(O)c1ccc(O)c(O)c1` (stereo not drawn) [isoproterenol, reference compound], the EC50 in test [1] (pre-treatment 3×10^-7 mol ml^-1 kg^-1 i.p., 15 min before inhalation, w of acetyl-β-methylcholine chloride in atomised solution, control animals w=0.000539, higher = more protection) was found to be 1450 µg/mL (≈ 6.86 mM). For the same compound, the “number of animals reacting” value in test [1] (setting [4]) amounted to 3; in test [1] (setting [7]), 5; in test [1] (setting [8]), 7; in test [1] (setting [10]), 8. Besides, the “probit analysis reaction % observed” value in test [1] (setting [5]) amounted to 33.33%; in test [1] (setting [6]), 62.50%; in test [1] (setting [9]) it was 77.78%; in test [1] (setting [11]) it was 88.89%. For the same compound, the “probit analysis reaction % calculated” value was 36.21% in test [1] (setting [5]), 57.88% in test [1] (setting [6]), 77.28% in test [1] (setting [9]) and 90.30% in test [1] (setting [11]).
